From patent US20230373934A1, “ANDROGEN RECEPTOR MODULATORS AND METHODS FOR THEIR USE” (ESSA Pharma, Inc., priority 2022, published 2023)
pIC50: −log10 of the molar value.

Molecular target: T1, androgen receptor (AR) (Homo sapiens, UniProt P10275, T878A)
T1 construct: endogenous in cells; host or cells: LNCaP
T1 sequence (P10275 1-920 T878A): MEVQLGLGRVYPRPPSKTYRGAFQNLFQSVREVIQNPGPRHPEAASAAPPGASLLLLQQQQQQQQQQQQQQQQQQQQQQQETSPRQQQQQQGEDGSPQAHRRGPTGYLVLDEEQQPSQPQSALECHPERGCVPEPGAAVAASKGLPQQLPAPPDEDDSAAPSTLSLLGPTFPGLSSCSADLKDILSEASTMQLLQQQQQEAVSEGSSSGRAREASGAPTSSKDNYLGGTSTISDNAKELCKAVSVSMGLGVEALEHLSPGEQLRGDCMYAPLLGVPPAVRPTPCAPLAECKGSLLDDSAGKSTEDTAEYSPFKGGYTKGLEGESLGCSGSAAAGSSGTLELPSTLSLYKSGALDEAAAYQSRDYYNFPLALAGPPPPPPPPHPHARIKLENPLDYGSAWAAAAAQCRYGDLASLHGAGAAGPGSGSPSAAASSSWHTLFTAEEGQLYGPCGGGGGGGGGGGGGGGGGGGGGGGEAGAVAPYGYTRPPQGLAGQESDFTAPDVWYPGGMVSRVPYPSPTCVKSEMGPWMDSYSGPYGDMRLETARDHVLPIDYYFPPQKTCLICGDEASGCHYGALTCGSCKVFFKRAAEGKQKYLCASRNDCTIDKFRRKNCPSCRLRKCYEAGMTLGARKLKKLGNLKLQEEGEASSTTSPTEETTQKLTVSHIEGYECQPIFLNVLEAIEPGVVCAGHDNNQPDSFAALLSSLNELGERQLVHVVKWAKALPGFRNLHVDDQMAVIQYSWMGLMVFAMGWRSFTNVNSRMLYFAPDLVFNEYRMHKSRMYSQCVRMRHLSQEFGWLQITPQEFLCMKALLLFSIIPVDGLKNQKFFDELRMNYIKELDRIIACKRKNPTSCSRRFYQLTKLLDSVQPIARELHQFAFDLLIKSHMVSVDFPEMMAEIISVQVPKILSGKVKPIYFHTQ
Assay: Androgen-induced PSA-luciferase assay, Luciferase Assay A (LNCaP transiently transfected with PSA (6.1 kb)-luciferase reporter)
Format: cell-based
Conditions: LNCaP cells, 1 h pretreatment, R1881 (1 nM) 24 h, read-out: PSA-Luc IC50 Range
Experimental: The PSA (6.1 kb)-luciferase reporter contains functional AREs (androgen response elements) to which AR binds in response to androgen to induce luciferase activity. LNCaP cells were transiently transfected with the PSA (6.1 kb)-luciferase reporter for 24 h, and then pretreated with vehicle (DMSO) or indicated concentration of representative compounds for one hour prior to the addition of synthetic androgen, R1881 (1 nM). After 24 h of incubation with R1881, the cells were harvested, and relative luciferase activities were determined (FIG. 1). To determine the IC50, treatments were normalized to vehicle control activity induced by R1881 (Table 2).
Luciferase Assay A: Cells were lysed using Passive Lysis Buffer (Promega) and then collected into V-bottom 96-well tissue culture plates. Lysates were centrifuged at 4° C. for 5 minutes at 3000 rpm. To measure luminescence of LNCaP cell lysates the Firefly Luciferase Assay System (Promega) was employed, according to manufacturer's protocol. Relative luminescence units (RLU) in cell lysates were detected for 10 seconds using Promega GloMax-Multi Detection Luminometer (Promega). Values were normalized to protein content. GraphPad Prism graphing software was used to calculate IC50 values. Luciferase Assay A was run for all compounds in Table 2 unless otherwise noted below.
Statistical analyses were performed using GraphPad Prism (Version 6.01 for Windows; La Jolla, CA, USA). Comparisons between treatment and control groups were compared using Two-Way ANOVA with post-hoc Dunnett's and Tukey's tests. Differences were considered statistically significant at P values less than 0.05.

| SMILES | pIC50 |
| --- | --- |
| CC(C)(c1ccc(CCN2CCC(NS(C)(=O)=O)CC2)cc1)c1cc(Cl)c(OCCCl)c(C#N)c1 [Compound A29] | < 5.70 |
| CC(C)(c1ccc(N2CCOC(CNS(C)(=O)=O)C2)cc1)c1cc(Cl)c(OCCCl)c(C#N)c1 (centres unmarked) [Compound A14] | 5.70 to 6.30 |
| CC(C)(c1ccc(OCc2cnc(NS(C)(=O)=O)nc2N)cc1)c1cc(Cl)c(OCCCl)c(C#N)c1 [Compound A118, N-(4-amino-5-((4-(2-(3-chloro-4-(2-chloroethoxy)-5-cyanophenyl)propan-2-yl)phenoxy)methyl)pyrimidin-2-yl)methanesulfonamide] | > 6.30 |
| CC(C)(c1ccc(CN2CCC(NS(C)(=O)=O)CC2)cc1)c1cc(Cl)c(OCCCl)c(C#N)c1 [Compound A8] | < 5.70 |
| CC(C)(c1ccc(OC[C@H]2C[C@@H](CNS(C)(=O)=O)C2)cc1)c1cc(Cl)c(OCCCl)c(C#N)c1 [Compound A74] | 5.70 to 6.30 |
| CC(C)(C)OC(=O)N1CCC(c2cc(COc3ccc(C(C)(C)c4cc(Cl)c(OCCCl)c(C#N)c4)cc3)nc(NS(C)(=O)=O)n2)CC1 [Compound A115] | 5.70 to 6.30 |
| CC(C)(c1ccc(OCc2ccnc(NS(C)(=O)=O)n2)cc1)c1cc(Cl)c(OCc2ccccc2)c(C#N)c1 [Compound A182] | 5.70 to 6.30 |
| CC(C)(c1ccc(-c2ccc(CNS(C)(=O)=O)cn2)cc1)c1cc(Cl)c(OCCCl)c(C#N)c1 [Compound A3] | 5.70 to 6.30 |
| CC(C)(C)OC(=O)N1CCN(c2cc(COc3ccc(C(C)(C)c4cc(Cl)c(OCCCl)c(C#N)c4)cc3)nc(NS(C)(=O)=O)n2)CC1 [Compound A117] | < 5.70 |
| CS(=O)(=O)Nc1nccc2nc(-c3ccc(Oc4cc(Cl)c(OCCCl)c(C#N)c4)cc3)ccc12 [Compound A66] | < 5.70 |
| CC(C)(c1ccc(-c2cncc(N3CC(NS(C)(=O)=O)C3)n2)cc1)c1cc(Cl)c(OCCCl)c(C#N)c1 [Compound A41] | < 5.70 |
| CC(C)(c1ccc(OCc2ccc(F)c(NS(C)(=O)=O)c2)cc1)c1cc(Cl)c(OCCCl)c(C#N)c1 [Compound A131] | 5.70 to 6.30 |
| CS(=O)(=O)NC1CN(c2ncc(-c3ccc(N(CC(F)(F)F)c4cc(Cl)c(OCCCl)c(C#N)c4)cc3)cn2)C1 [Compound A68] | > 6.30 |
| CC(C)(c1ccc(OCc2ccnc(NS(C)(=O)=O)n2)cc1)c1cc(Cl)c(N2CCC(F)CC2)c(C#N)c1 [Compound A153] | < 5.70 |
| CC(C)(c1ccc(OCc2ccnc(NS(C)(=O)=O)n2)cc1)c1cc(Cl)c(OCC2CCC2)c(C#N)c1 [Compound A146] | 5.70 to 6.30 |
| CC(C)(c1ccc(OCc2ccnc(NS(C)(=O)=O)n2)cc1)c1cc(Cl)c(N2CC3CC2CO3)c(C#N)c1 (centres unmarked) [Compound A149] | 5.70 to 6.30 |
| CC(C)(c1ccc(OCC2CC3(C2)CN(S(C)(=O)=O)C3)cc1)c1cc(Cl)c(OCCCl)c(C#N)c1 [Compound A71] | 5.70 to 6.30 |

| SMILES | pIC50 |
| --- | --- |
| CS(=O)(=O)NC1CCN(CCc2ccc(Oc3cc(Cl)c(OCCCl)c(C#N)c3)cc2)CC1 [Compound A30] | < 5.70 |
| CS(=O)(=O)Nc1cnc2cc(N3CCC(Oc4cc(Cl)c(OCCCl)c(C#N)c4)CC3)ccc2n1 [Compound A88] | < 5.70 |
| CS(=O)(=O)NC1CN(c2ncc(-c3ccc(Oc4cc(Cl)c(OCCCl)c(C#N)c4)cc3)cn2)C1 [Compound A70] | < 5.70 |
| CS(=O)(=O)Nc1cnc2cc(C3CCN(Cc4cc(Cl)c(OCCCl)c(C#N)c4)CC3)ccc2n1 [Compound A93] | < 5.70 |
| CS(=O)(=O)Nc1nccc(COc2ccc(Oc3cc(Cl)c(OCCCl)c(C#N)c3)cc2)n1 [Compound A122] | < 5.70 |
| CS(=O)(=O)NC1CCN(Cc2ccc(Oc3cc(Cl)c(OCCCl)c(C#N)c3)cc2)CC1 [Compound A9] | < 5.70 |
| CC(C)(c1ccc(-c2ccc(N3CCC(NS(C)(=O)=O)C3)nc2)cc1)c1cc(Cl)c(OCCCl)c(C#N)c1 (centres unmarked) [Compound A54] | > 6.30 |
| CC(C)(c1ccc(OCc2ccnc(NS(C)(=O)=O)n2)cc1)c1cc(Cl)c(CN2CCCC(F)(F)C2)c(Cl)c1 [Compound A160] | < 5.70 |
| CC(C)(c1ccc(OCc2ccnc(NS(C)(=O)=O)n2)cc1)c1cc(Cl)c(N2CCC3(CC2)CC3)c(C#N)c1 [Compound A133] | < 5.70 |
| CC(C)(c1ccc(OCc2ccnc(NS(C)(=O)=O)n2)cc1)c1cc(Cl)c(OCCCOC(=O)Nc2ccccc2)c(C#N)c1 [Compound A139] | 5.70 to 6.30 |
| CC(C)(c1ccc(OC2CC3(C2)CN(S(C)(=O)=O)C3)cc1)c1cc(Cl)c(N2CCOCC2)c(C#N)c1 [Compound A140] | 5.70 to 6.30 |
| CS(=O)(=O)Nc1cnc2cc(-c3ccc(Oc4cc(Cl)c(OCCCl)c(C#N)c4)cc3)cnc2n1 [Compound A49] | 5.70 to 6.30 |
| CC(C)(c1ccc(-c2ncc(CNS(C)(=O)=O)cn2)cc1)c1cc(Cl)c(OCCCl)c(C#N)c1 [Compound A5] | 5.70 to 6.30 |
| CC1(O)CN(Cc2c(Cl)cc(C(C)(C)c3ccc(OCc4ccnc(NS(C)(=O)=O)n4)cc3)cc2Cl)C1 [Compound A161] | < 5.70 |
| CC(C)(c1ccc(CN2CCC(NS(C)(=O)=O)C(F)(F)C2)cc1)c1cc(Cl)c(OCCCl)c(C#N)c1 (centres unmarked) [Compound A34] | < 5.70 |
| CC(C)(c1ccc(OC[C@]2(F)C[C@H](NS(C)(=O)=O)C2)cc1)c1cc(Cl)c(OCCCl)c(C#N)c1 [Compound A26] | < 5.70 |
| CC(C)(c1ccc(OCC23CC(NS(C)(=O)=O)(C2)C3)cc1)c1cc(Cl)c(N2CCOCC2)c(C#N)c1 [Compound A142] | 5.70 to 6.30 |

Results, then the compound that gave them:

| pIC50 | SMILES |
| --- | --- |
| < 5.70 | COC1CN(c2c(Cl)cc(C(C)(C)c3ccc(OCc4ccnc(NS(C)(=O)=O)n4)cc3)cc2C#N)C1 [Compound A167] |
| < 5.70 | CC(C)(c1ccc(OCc2ccnc(NS(C)(=O)=O)n2)cc1)c1cc(Cl)c(OCCN2CCNCC2)c(C#N)c1 [Compound A184] |
| > 6.30 | CC(C)(c1ccc(-c2ccc(CCNS(C)(=O)=O)nc2)cc1)c1cc(Cl)c(OCCCl)c(C#N)c1 [Compound A6] |
| 5.70 to 6.30 | CC(C)(c1ccc(OCc2ccnc(NS(C)(=O)=O)n2)cc1)c1cc(Cl)c(N2CCOC3(CC3)C2)c(C#N)c1 [Compound A148] |
| < 5.70 | CS(=O)(=O)Nc1nccc(COc2ccc(Cc3cc(Cl)c(OCCCl)c(C#N)c3)cc2)n1 [Compound A185] |
| < 5.70 | CS(=O)(=O)Nc1cnc2cc(-c3ccc(Oc4cc(Cl)c(OCCCl)c(C#N)c4)cn3)ccc2n1 [Compound A23] |
| 5.70 to 6.30 | CC(C)(c1ccc(-c2ccc(N3CCCC(NS(C)(=O)=O)C3)nc2)cc1)c1cc(Cl)c(OCCCl)c(C#N)c1 (centres unmarked) [Compound A59] |
| < 5.70 | CC(C)(c1ccc(OCc2cc(C3CCNCC3)nc(NS(C)(=O)=O)n2)cc1)c1cc(Cl)c(OCCCl)c(C#N)c1 [Compound A114] |
| 5.70 to 6.30 | CN(c1nccc(Oc2ccc(C(C)(C)c3cc(Cl)c(OCCCl)c(C#N)c3)cc2)n1)S(C)(=O)=O [Compound A135] |
| < 5.70 | CC(C)(c1ccc(-c2cn([C@H]3C[C@H](NS(C)(=O)=O)C3)nn2)cc1)c1cc(Cl)c(OCCCl)c(C#N)c1 [Compound A77] |
| < 5.70 | CC(C)(c1ccc(OCc2ccnc(NS(C)(=O)=O)n2)cc1)c1cc(Cl)c(CN2CCOCC2)c(Cl)c1 [Compound A159] |
| < 5.70 | CC(C)(c1ccc(N2CCN(CCNS(C)(=O)=O)CC2)cc1)c1cc(Cl)c(OCCCl)c(C#N)c1 [Compound A13] |
| 5.70 to 6.30 | CC(C)(c1ccc(-c2cnc3cc(NS(C)(=O)=O)ccc3n2)cc1)c1cc(Cl)c(OCCCl)c(C#N)c1 [Compound A124] |
| 5.70 to 6.30 | CS(=O)(=O)NCc1ccc(-c2ccc(Oc3cc(Cl)c(OCCCl)c(C#N)c3)cc2)cn1 [Compound A21] |
| > 6.30 | CC(C)(c1ccc(-c2ccc(N3CC(CNS(C)(=O)=O)C3)nc2)cc1)c1cc(Cl)c(OCCCl)c(C#N)c1 [Compound A55] |
| 5.70 to 6.30 | CC(C)(c1ccc(OCc2ccnc(NS(C)(=O)=O)n2)cc1)c1cc(Cl)c(N2CCN(CC(F)(F)F)CC2)c(C#N)c1 [Compound A134] |
